Test results published in patent US20120040987A1, “DERIVATIVES OF 6-(6-NH-SUBSTITUTED-TRIAZOLOPYRIDAZINE-SULFANYL) BENZOTHIAZOLES AND BENZIMIDAZOLES, PREPARATION THEREOF, USE THEREOF AS DRUGS, AND USE THEREOF AS MET INHIBITORS” (SANOFI, priority 2009, published 2012).

Legend:
[1] = tested on: HCT116 cells and MKN45 cells; experiment: Test C: measurement of cell proliferation by 14C-thymidine pulse; assay type: cell-based; details: 14C-thymidine incorporation, 96 h of treatment; cell line not given
Method: The cells are seeded into Cytostar 96-well plates in 180 μl for 4 hours at 37° C. and 5% CO2: HCT116 cells at a rate of 2500 cells per well in DMEM medium+10% foetal calf serum+1% L-glutamine and MKN45 cells at a rate of 7500 cells per well in RPMI medium+10% foetal calf serum+1% L-glutamine. After these 4 hours of incubation, the products are added in 10 μl as a 20-fold concentrated solution according to the dilution method mentioned for the ELISA. The products are tested at 10 concentrations in duplicate from 10 000 nM to 0.3 nM with an increment of 3.
After treatment for 72 h, add 10 μl of ^14C-thymidine at 10 μCi/ml to obtain 0.1 μCi per well. The ^14C-thymidine incorporation is measured on a Micro-Beta machine (Perkin-Elmer) after 24 hours of pulse and 96 h of treatment.
All the steps of the assay are automated on BIOMEK 2000 or TECAN stations.

MET [2] = target: T1, MET (Homo sapiens, UniProt P08581); experiment: Test A: HTRF MET assay in 96-well format; assay type: biochemical; parameters: The His-Tev-MET (956-1390) recombinant DNA in pFastBac (Invitrogen) is transfected into insect cells; His tag (N, cleaved yes); Tev cleavage site (N, cleaved yes); made in house; host or cells: SF21 insect cells (baculovirus, pFastBac); details: MET 5 nM, 10 μM ATP
Method: The His-Tev-MET (956-1390) recombinant DNA in pFastBac (Invitrogen) is transfected into insect cells, and after several viral amplification steps, the final baculovirus stock is tested for the expression of the protein of interest.
After infection for 72 h at 27° C. with the recombinant virus, the SF21 cell cultures are harvested by centrifugation and the cell pellets are stored at −80° C.
The cell pellets are resuspended in lysis buffer (buffer A [50 mM HEPES, pH 7.5, 250 mM NaCl, 10% glycerol, 1 mM TECP]; +cocktail of protease inhibitors, Roche Diagnostics, without EDTA, ref 1873580), stirred at 4° C. until the mixture is homogeneous and then lyzed mechanically using a “Dounce” type apparatus.
After centrifugation, the lysis supernatant is incubated for 2 h at 4° C. with nickel chelate resin (His-Trap 6 Fast Flow™, GE HealthCare). After washing with 20 volumes of buffer A, the suspension is packed into a column, and the proteins are eluted with a gradient of buffer B ([…]+290 mM imidazole).
The fractions containing the protein of interest for the purpose of electrophoretic analysis (SDS PAGE) are combined, concentrated by ultrafiltration (10 kDa cut-off) and injected onto an exclusion chromatography column (Superdex™ 200, GE HealthCare) equilibrated in buffer A.
After enzymatic cleavage of the histidine tag, the protein is reinjected onto a new IMAC nickel chelate chromatography column (His-Trap 6 Fast Flow™, GE HealthCare) equilibrated in buffer A. The fractions eluted with a gradient of buffer B and containing the protein of interest after electrophoresis (SDS PAGE) are finally combined and conserved at −80° C.
For the production of autophosphorylated protein, the previous fractions are incubated for 1 h at ambient temperature after the addition of 2 mM ATP, 2 mM MgCl2, and 4 mM Na3VO4. After the reaction has been stopped with 5 mM of EDTA, the reaction mixture is injected onto a HiPrep desalifying column (GE HealthCare) preequilibrated in buffer A+4 mM Na3VO4, and the fractions containing the protein of interest (SDS PAGE analysis) are combined and stored at −80° C. The degree of phosphorylation is verified by mass spectrometry (LC-MS) and by peptide mapping.
MET at a final concentration of 5 nM is incubated in a final volume of 50 μl of enzymatic reaction in the presence of the test molecule (for a final concentration range of from 0.17 nM to 10 μM, 3% DMSO final concentration) in 10 mM MOPS buffer, pH 7.4, 1 mM DTT, 0.01% Tween 20. The reaction is initiated with the substrate solution to obtain final concentrations of 1 μg/ml poly-(GAT), 10 μM ATP and 5 mM MgCl2. After incubation for 10 min at ambient temperature, the reaction is stopped with a 30 μl mix so as to obtain a final solution of 50 mM Hepes pH 7.5, 500 mM potassium fluoride, 0.1% BSA and 133 mM EDTA in the presence of 80 ng of streptavidin 61SAXLB Cis-Bio Int. and 18 ng of anti-phosphotyrosine Mab PT66-Europium Cryptate per well. After incubation for 2 hours at ambient temperature, the reading is taken at 2 wavelengths, 620 nm and 665 nm, on a reader for the TRACE/HTRF technique and the % inhibition is calculated from the 665/620 ratios.
Target sequence in this assay (P08581 956-1390): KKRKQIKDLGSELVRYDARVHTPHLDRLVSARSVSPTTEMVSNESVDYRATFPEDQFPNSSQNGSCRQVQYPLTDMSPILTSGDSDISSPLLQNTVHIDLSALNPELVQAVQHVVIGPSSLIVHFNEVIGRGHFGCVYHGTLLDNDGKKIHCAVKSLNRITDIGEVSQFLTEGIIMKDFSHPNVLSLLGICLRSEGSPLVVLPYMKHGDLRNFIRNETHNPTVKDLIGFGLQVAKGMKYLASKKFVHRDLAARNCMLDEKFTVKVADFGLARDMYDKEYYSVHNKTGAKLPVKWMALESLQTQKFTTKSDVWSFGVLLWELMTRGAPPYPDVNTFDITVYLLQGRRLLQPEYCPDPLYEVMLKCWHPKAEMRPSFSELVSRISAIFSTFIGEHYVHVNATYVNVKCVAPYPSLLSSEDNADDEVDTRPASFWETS

MET [3] = target: T1, MET; experiment: Test B: inhibition of the autophosphorylation of MET, ELISA technique (pppY1230, 1234, 1235) on MKN45 cell lysates; assay type: cell-based; parameters: endogenous in cells; host or cells: MKN45 cells; details: MKN45 cells, 1 h treatment, phosphoMET ELISA
Method: a) Cell lysates: Seed MKN45 cells into 96-well plates (Cell coat BD polylysine) at 20 000 cells/well in 200 μl in RPMI medium+10% FCS+1% L-glutamine. Leave to adhere for 24 hours in an incubator.
The cells are treated the day after seeding with the products at 6 concentrations in duplicate for 1 h. At least 3 control wells are treated with the same final amount of DMSO.
Product dilution: Stock at 10 mM in pure DMSO—range from 10 mM to 30 μM with an increment of 3 in pure DMSO—intermediate 1/50 dilutions in culture medium and then removal of 10 μl added directly to the cells (200 μl): final range of 10 000 to 30 nM.
At the end of the incubation, carefully remove the supernatant and rinse with 200 μl of PBS. Next, place 100 μl of lysis buffer directly in the wells on ice and incubate at 4° C. for 30 minutes. Lysis buffer: 10 mM Tris HCl, pH7.4, 100 mM NaCl, 1 mM EDTA, 1 mM EGTA, 1% Triton X-100, 10% glycerol, 0.1% SDS, 0.5% deoxycholate, 20 mM NaF, 2 mM Na3VO4, 1 mM PMSF and cocktail of antiproteases.
The 100 μl of lysates are transferred into a V-bottomed polypropylene plate and the ELISA is performed immediately, or the plate is frozen at −80° C.
Into each well of the kit plate, add 70 μl of kit dilution buffer+30 μL of cell lysate or 30 μl of lysis buffer for the blanks. Incubate for 2 h with gentle agitation at ambient temperature.
Rinse the wells 4 times with 400 μl of kit washing buffer. Incubate with 100 μl of anti-phospho MET antibody for 1 hour at ambient temperature.
Rinse the wells 4 times with 400 μl of kit washing buffer. Incubate with 100 μl of anti-rabbit HRP antibody for 30 minutes at ambient temperature (except for the wells of chromogen alone).
Rinse the wells 4 times with 400 μl of kit washing buffer. Introduce 100 μL of chromogen and incubate for 30 minutes in the dark at ambient temperature.
Stop the reaction with 100 μl of stop solution. Read without delay at […], 0.1 second on Wallac Victor plate reader.
Target sequence in this assay (P08581 25-1390): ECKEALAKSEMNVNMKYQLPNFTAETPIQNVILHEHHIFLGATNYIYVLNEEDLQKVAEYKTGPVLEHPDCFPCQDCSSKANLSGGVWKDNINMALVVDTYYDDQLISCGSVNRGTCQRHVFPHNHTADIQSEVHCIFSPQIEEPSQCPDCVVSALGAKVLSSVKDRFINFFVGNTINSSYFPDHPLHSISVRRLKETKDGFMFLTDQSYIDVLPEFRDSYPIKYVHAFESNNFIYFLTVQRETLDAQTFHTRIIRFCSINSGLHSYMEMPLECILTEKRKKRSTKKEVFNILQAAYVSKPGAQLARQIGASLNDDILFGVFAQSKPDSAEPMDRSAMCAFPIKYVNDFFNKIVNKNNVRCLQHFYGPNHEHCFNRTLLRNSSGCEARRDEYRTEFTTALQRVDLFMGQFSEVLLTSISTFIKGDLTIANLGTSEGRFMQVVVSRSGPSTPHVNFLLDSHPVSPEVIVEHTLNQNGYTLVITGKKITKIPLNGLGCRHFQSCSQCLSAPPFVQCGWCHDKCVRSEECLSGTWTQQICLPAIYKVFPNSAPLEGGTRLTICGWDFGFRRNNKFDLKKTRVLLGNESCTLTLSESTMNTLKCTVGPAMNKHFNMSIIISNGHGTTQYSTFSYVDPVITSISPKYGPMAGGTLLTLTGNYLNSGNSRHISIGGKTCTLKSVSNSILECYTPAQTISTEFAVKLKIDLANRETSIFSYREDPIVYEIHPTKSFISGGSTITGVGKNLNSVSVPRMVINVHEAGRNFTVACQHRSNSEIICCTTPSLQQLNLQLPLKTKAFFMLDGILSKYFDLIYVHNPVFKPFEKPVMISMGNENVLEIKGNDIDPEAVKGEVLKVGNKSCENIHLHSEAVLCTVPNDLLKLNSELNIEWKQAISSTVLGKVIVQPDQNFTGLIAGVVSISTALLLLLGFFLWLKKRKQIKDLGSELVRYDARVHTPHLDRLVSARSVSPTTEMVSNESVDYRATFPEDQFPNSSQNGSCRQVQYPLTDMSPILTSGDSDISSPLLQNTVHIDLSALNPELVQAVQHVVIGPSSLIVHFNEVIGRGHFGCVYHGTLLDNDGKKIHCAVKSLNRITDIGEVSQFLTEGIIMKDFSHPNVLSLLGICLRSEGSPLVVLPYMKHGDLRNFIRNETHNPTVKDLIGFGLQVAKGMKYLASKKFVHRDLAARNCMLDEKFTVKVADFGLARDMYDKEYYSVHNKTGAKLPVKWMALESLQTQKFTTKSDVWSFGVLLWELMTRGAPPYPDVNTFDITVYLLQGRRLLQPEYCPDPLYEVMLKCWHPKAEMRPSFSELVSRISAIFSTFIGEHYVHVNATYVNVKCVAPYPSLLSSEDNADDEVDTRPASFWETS

| SMILES | IC50 [1] | IC50 (MET [2]) | IC50 (MET [3]) |
| --- | --- | --- | --- |
| Nc1nc2ccc(Sc3nnc4ccc(NC5CCOCC5)nn34)cc2s1 [Example 1, 3-[(2-Amino-1,3-benzothiazol-6-yl)sulphanyl]-N-(tetrahydro-2H-pyran-4-yl)[1,2,4]triazolo[4,3-b]pyridazin-6-amine] | < 1000 nM | < 100 nM | – |
| CC(=O)Nc1nc2ccc(Sc3nnc4ccc(NC5CCOCC5)nn34)cc2s1 [Example 2, N-(6-{[6-(Tetrahydro-2H-pyran-4-ylamino)[1,2,4]triazolo[4,3-b]pyridazin-3-yl]sulphanyl}-1,3-benzothiazol-2-yl)acetamide] | < 1000 nM | < 100 nM | < 100 nM |
| O=C(Nc1nc2ccc(Sc3nnc4ccc(NC5CCOCC5)nn34)cc2s1)C1CC1 [Example 3, N-(6-{[6-(Tetrahydro-2H-pyran-4-ylamino)[1,2,4]triazolo[4,3-b]pyridazin-3-yl]sulphanyl}-1,3-benzothiazol-2-yl)cyclopropanecarboxamide] | < 1000 nM | < 100 nM | < 100 nM |
| O=C(NCCN1CCOCC1)Nc1nc2ccc(Sc3nnc4ccc(NC5CCOCC5)nn34)cc2s1 [Example 4, 1-[2-(Morpholin-4-yl)ethyl]-3-(6-{[6-(tetrahydro-2H-pyran-4-ylamino)-[1,2,4]triazolo[4,3-b]pyridazin-3-yl]sulphanyl}-1,3-benzothiazol-2-yl)urea] | < 1000 nM | < 100 nM | < 100 nM |
| COCCC(=O)Nc1nc2ccc(Sc3nnc4ccc(NC5CCOCC5)nn34)cc2s1 [Example 5, 3-Methoxy-N-(6-{[6-(tetrahydro-2H-pyran-4-ylamino)[1,2,4]triazolo-[4,3-b]pyridazin-3-yl]sulphanyl}-1,3-benzothiazol-2-yl)propanamide] | < 1000 nM | < 100 nM | < 100 nM |
| CN(C)CC(=O)Nc1nc2ccc(Sc3nnc4ccc(NC5CCOCC5)nn34)cc2s1 [Example 6, N^2,N^2-dimethyl-N-(6-{[6-(tetrahydro-2H-pyran-4-ylamino)[1,2,4]triazolo-[4,3-b]pyridazin-3-yl]sulphanyl}-1,3-benzothiazol-2-yl)glycinamide] | < 1000 nM | < 100 nM | < 100 nM |
